Results reported in ChEMBL document CHEMBL1221248, “Synthesis and SAR of (piperazin-1-yl-phenyl)-arylsulfonamides: a novel series of atypical antipsychotic agents” (Bioorg Med Chem Lett, 2010).
Calls of active or inactive are those of the source. The calls are words filed in the database; no cut-off is given here.

Key:
[1] = target: T1, 5-hydroxytryptamine receptor 1A (Homo sapiens, UniProt P08908); assay: Displacement of [3H]8-OH-DPAT from human 5HT1A expressed in CHOKI cells; format: cell-based
T1 sequence (P08908 whole entry): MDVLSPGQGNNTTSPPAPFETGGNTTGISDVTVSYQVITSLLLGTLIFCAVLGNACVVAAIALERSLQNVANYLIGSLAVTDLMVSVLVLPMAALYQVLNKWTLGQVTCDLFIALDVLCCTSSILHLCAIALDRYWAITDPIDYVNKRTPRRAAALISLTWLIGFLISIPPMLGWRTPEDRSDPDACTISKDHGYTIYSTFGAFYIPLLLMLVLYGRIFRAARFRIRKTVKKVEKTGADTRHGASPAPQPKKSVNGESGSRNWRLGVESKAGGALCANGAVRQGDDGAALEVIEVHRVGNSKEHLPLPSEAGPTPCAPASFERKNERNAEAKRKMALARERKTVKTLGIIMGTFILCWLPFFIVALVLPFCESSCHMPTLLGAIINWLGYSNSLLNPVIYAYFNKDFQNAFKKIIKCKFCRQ

[2] = target: 5-hydroxytryptamine receptor 2A (Homo sapiens, UniProt P28223); assay: Displacement of [3H]ketanserin from human 5HT2A expressed in CHOKI cells; format: cell-based
[3] = target: T2, 5-hydroxytryptamine receptor 6 (Homo sapiens, UniProt P50406); assay: Displacement of [3H]LSD from human 5HT6 receptor expressed in HEK293 cells; format: cell-based
Target sequence in this assay (P50406 whole entry): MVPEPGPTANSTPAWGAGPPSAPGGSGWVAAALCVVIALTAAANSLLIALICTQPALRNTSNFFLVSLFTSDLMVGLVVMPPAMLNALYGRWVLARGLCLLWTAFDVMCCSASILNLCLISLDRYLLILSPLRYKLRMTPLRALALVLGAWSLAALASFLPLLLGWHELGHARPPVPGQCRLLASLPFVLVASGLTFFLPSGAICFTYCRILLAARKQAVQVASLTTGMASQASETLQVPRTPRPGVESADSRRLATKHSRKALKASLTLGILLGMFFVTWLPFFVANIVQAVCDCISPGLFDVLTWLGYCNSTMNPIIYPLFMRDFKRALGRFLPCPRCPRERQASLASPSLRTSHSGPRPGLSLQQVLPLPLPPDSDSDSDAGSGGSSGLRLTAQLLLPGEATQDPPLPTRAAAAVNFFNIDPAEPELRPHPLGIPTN

[4] = target: D(3) dopamine receptor (Homo sapiens, UniProt P35462); assay: Displacement of [3H]spiperone from human dopamine D3 receptor expressed in CHOKI cells; format: cell-based
[5] = target: D(2) dopamine receptor (Homo sapiens, UniProt P14416); assay: Displacement of [3H]spiperone from human dopamine D2 expressed in CHOKI cells; format: cell-based
[6] = target: T3, D(4) dopamine receptor (Homo sapiens, UniProt P21917); assay: Displacement of [3H]spiperone from human dopamine D4 receptor expressed in CHOKI cells; format: cell-based
T3 sequence (P21917 whole entry): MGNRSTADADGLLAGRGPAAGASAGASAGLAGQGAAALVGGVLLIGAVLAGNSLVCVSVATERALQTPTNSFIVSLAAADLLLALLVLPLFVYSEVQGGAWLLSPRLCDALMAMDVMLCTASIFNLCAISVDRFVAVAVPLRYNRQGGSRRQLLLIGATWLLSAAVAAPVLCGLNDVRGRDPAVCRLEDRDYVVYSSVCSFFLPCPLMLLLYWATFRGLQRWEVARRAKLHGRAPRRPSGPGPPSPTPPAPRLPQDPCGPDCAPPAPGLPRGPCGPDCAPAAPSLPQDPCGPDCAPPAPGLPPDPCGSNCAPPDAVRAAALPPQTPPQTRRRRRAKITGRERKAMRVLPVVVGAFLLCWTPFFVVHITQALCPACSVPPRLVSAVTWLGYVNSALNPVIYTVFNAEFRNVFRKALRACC

[7] = target: 5-hydroxytryptamine receptor 7 (Homo sapiens, UniProt P34969); assay: Displacement of [3H]LSD from human 5HT7 expressed in CHOKI cells; format: cell-based
[8] = target: T4, 5-hydroxytryptamine receptor 2C (Homo sapiens, UniProt P28335); assay: Displacement of [3H]mesulergine from human 5HT2C expressed in CHOKI cells; format: cell-based
T4 sequence (P28335 whole entry): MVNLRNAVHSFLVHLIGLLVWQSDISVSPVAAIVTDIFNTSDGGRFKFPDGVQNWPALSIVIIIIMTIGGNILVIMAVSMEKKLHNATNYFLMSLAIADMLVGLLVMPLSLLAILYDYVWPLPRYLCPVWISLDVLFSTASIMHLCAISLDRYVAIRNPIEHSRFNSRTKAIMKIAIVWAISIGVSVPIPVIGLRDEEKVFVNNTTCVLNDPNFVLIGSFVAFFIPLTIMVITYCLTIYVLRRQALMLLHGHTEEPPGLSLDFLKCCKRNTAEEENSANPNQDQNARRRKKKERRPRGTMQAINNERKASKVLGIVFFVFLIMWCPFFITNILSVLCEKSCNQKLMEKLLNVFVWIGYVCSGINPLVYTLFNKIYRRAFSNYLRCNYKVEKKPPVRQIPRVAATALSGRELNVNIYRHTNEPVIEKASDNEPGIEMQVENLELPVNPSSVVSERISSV

[9] = organism: Homo sapiens; assay: Selectivity ratio of IC50 for human dopamine D3 to IC50 for human 5HT2C
[10] = organism: Homo sapiens; assay: Selectivity ratio of IC50 for human dopamine D2 to IC50 for human 5HT6 receptor
[11] = target: T5, 5-hydroxytryptamine receptor 2C (Homo sapiens) (UniProt P28335); assay: Antagonist activity at human 5HT2C expressed in CHO cells assessed as inhibition of 5-HT-stimulated [35S]GTPgamma binding; format: functional, cell-based
T5 sequence (whole entry): T4 sequence (P28335 whole entry)

[12] = organism: Homo sapiens; assay: Selectivity ratio of IC50 for human dopamine D4 to IC50 for human 5HT6 receptor
[13] = organism: Homo sapiens; assay: Selectivity ratio of IC50 for human 5HT1A to IC50 for human 5HT2C
[14] = organism: Homo sapiens; assay: Selectivity ratio of IC50 for human 5HT2A to IC50 for human 5HT6 receptor
[15] = organism: Homo sapiens; assay: Selectivity ratio of IC50 for human dopamine D3 to IC50 for human 5HT6 receptor
[16] = organism: Homo sapiens; assay: Selectivity ratio of IC50 for human 5HT7 to IC50 for human 5HT6 receptor
[17] = target: T2, 5-hydroxytryptamine receptor 6; assay: Antagonist activity at human 5HT6 receptor expressed in human HeLa cells assessed as inhibition of 5-HT-stimulated cAMP production; format: functional, cell-based
Target sequence in this assay (P50406 whole entry): as the sequence (P50406 whole entry) above

[18] = organism: Homo sapiens; assay: Selectivity ratio of IC50 for human 5HT1A to IC50 for human 5HT6 receptor
[19] = organism: Homo sapiens; assay: Selectivity ratio of IC50 for human dopamine D2 to IC50 for human 5HT2C
[20] = organism: Homo sapiens; assay: Selectivity ratio of IC50 for human 5HT7 to IC50 for human 5HT2C
[21] = organism: Homo sapiens; assay: Selectivity ratio of IC50 for human dopamine D4 to IC50 for human 5HT2C
[22] = target: Serotonin 2 receptors; 5-HT2a & 5-HT2c (Homo sapiens) (UniProt P28223+P28335); assay: Selectivity ratio of IC50 for human 5HT2A to IC50 for human 5HT2C
[23] = target: T2, 5-hydroxytryptamine receptor 6; assay: Antagonist activity at human 5HT6 expressed in human HeLa cells assessed as inhibition of 5-HT-stimulated cAMP accumulation
Target sequence in this assay (P50406 whole entry, looked up): as the sequence (P50406 whole entry) above

Sequence of D(3) dopamine receptor (P35462 whole entry): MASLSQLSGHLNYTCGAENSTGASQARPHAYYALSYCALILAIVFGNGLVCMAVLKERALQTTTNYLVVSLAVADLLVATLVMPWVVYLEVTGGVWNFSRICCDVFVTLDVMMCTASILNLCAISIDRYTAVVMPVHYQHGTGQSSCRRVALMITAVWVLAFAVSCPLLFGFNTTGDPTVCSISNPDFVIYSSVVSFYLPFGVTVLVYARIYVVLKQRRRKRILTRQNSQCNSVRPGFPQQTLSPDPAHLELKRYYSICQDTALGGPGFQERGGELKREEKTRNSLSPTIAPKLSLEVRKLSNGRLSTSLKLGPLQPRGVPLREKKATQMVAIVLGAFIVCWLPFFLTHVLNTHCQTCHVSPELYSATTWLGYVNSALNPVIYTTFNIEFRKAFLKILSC
Sequence of D(2) dopamine receptor (P14416 whole entry): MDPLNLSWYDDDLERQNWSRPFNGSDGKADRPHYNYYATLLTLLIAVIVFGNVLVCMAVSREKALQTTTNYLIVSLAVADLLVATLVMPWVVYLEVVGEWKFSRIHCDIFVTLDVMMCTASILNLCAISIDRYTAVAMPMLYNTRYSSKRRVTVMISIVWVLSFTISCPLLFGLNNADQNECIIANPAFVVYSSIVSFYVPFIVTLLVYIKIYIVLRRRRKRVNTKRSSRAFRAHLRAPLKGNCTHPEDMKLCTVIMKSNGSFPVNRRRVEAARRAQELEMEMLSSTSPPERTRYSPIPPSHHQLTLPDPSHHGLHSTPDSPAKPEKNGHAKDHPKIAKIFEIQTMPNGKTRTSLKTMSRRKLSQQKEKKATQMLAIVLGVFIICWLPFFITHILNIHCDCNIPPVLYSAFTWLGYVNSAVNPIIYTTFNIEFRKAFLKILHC
Sequence of 5-hydroxytryptamine receptor 2A (P28223 whole entry): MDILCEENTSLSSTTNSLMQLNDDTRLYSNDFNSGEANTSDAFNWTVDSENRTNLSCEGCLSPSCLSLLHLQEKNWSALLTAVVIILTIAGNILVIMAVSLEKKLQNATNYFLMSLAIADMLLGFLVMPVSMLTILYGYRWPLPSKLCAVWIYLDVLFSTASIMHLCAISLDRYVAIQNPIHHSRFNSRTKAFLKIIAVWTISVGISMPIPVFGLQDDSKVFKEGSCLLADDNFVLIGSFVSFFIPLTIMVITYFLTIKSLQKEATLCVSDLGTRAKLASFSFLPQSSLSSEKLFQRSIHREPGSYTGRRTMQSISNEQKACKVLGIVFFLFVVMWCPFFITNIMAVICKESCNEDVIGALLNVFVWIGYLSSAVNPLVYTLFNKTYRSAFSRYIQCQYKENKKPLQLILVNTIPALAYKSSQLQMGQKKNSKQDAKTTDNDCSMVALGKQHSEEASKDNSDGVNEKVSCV
Sequence of 5-hydroxytryptamine receptor 7 (P34969 whole entry): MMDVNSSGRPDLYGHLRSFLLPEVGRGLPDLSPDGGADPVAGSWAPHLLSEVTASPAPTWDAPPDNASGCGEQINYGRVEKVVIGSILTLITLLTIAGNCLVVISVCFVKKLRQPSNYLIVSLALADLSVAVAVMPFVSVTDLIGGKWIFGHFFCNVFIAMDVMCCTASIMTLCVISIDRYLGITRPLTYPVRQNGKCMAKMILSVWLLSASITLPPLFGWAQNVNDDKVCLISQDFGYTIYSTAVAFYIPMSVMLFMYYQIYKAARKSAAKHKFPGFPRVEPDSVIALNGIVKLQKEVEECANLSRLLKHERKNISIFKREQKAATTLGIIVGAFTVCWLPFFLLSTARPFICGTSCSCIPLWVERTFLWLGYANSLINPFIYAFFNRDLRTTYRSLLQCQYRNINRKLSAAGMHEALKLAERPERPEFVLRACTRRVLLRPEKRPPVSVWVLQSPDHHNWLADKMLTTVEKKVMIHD
Sequence of Serotonin 2 receptors; 5-HT2a & 5-HT2c (Homo sapiens) (P28223 whole entry, looked up, one chain of several): as the sequence (P28223 whole entry) above

IC50 [1] [nM]	IC50 [2] [nM]	IC50 [3] [nM]	IC50 [4] [nM]	IC50 [5] [nM]	IC50 [6] [nM]	IC50 [7] [nM]	IC50 [8] [nM]	Compound	other results
298	122	16	1200	> 10000	> 10000	2870	100	CC(C)N(c1cccc(N2CCN(C)CC2)c1)S(=O)(=O)c1cccc2ccccc12	–
–	–	–	–	–	–	–	97	CC(C)N(C(=O)c1cccc2ccccc12)c1cccc(N2CCN(C)CC2)c1	–
485	218	3	1170	> 10000	> 10000	2060	16	CCN(c1cccc(N2CCN(C)CC2)c1)S(=O)(=O)c1ccc2ccccc2c1	–
–	–	–	–	–	–	–	7700	CC(C)N(C(=O)c1ccc(Cl)cc1)c1cccc(N2CCN(C)CC2)c1	–
57	1620	13	2100	> 10000	> 10000	1580	5150	CN1CCN(c2cccc(NS(=O)(=O)c3ccc4ccccc4c3)c2)CC1	–
–	–	27	–	–	–	–	1720	CC(C)N(c1ccc(N2CCN(C)CC2)cc1)S(=O)(=O)c1ccc2ccccc2c1	–
–	–	2190	–	–	–	–	4640	CC(C)N(c1ccccc1N1CCN(C)CC1)S(=O)(=O)c1ccc2ccccc2c1	–
–	–	1180	–	–	–	–	467	CC(C)N(c1cccc(I)c1)S(=O)(=O)c1ccc2ccccc2c1	–
3760	389	4	2510	> 10000	> 10000	3860	7	CCCN(c1cccc(N2CCN(C)CC2)c1)S(=O)(=O)c1ccc2ccccc2c1	Ratio IC50 [9]: > 25; Ratio IC50 [10]: > 25; Ratio IC50 [12]: > 25; Ratio IC50 [13]: > 25; Ratio IC50 [14]: > 25; Ratio IC50 [15]: > 25; Ratio IC50 [16]: > 25; Ratio IC50 [18]: > 25; Ratio IC50 [19]: > 25; Ratio IC50 [20]: > 25; Ratio IC50 [21]: > 25; Ratio IC50 [22]: > 25
3400	172	644	2890	> 10000	> 10000	1010	21	CC(C)N(c1cccc(N2CCN(C)CC2)c1)S(=O)(=O)c1ccccc1	–
95	1420	7	2420	> 10000	> 10000	4430	36	CN1CCN(c2cccc(N(C)S(=O)(=O)c3ccc4ccccc4c3)c2)CC1	–
672	88	6	1430	> 10000	> 10000	3040	6	CN1CCN(c2cccc(N(CC3CC3)S(=O)(=O)c3ccc4ccccc4c3)c2)CC1	–
280	50	3	943	> 10000	> 10000	2040	32	CN1CCN(c2cccc(N(Cc3ccccc3)S(=O)(=O)c3ccc4ccccc4c3)c2)CC1	–
–	–	–	–	–	–	–	106	Cc1ccc(S(=O)(=O)N(c2cccc(N3CCN(C)CC3)c2)C(C)C)cc1	–
–	–	–	–	–	–	–	243	CC(C)N(c1cccc(N2CCN(C)CC2)c1)S(=O)(=O)c1ccc(Cl)cc1	–
–	–	–	–	–	–	–	462	CC(C)N(c1cccc(N2CCN(C)CC2)c1)S(=O)(=O)c1ccc([N+](=O)[O-])cc1	–
–	–	–	–	–	–	–	159	CCC(CC)N(c1cccc(N2CCN(C)CC2)c1)S(=O)(=O)c1ccc2ccccc2c1	–
–	–	–	–	–	–	–	11	CN1CCN(c2cccc(N(CC3CCCC3)S(=O)(=O)c3ccc4ccccc4c3)c2)CC1	–
–	–	–	–	–	–	–	168	CCC(C)N(c1cccc(N2CCN(C)CC2)c1)S(=O)(=O)c1ccc2ccccc2c1 (centres undefined)	–
–	–	–	–	–	–	–	34	CN1CCN(c2cccc(N(Cc3cccnc3)S(=O)(=O)c3ccc4ccccc4c3)c2)CC1	–
–	–	–	–	–	–	–	420	CC(C)N(C(=O)c1ccc2ccccc2c1)c1cccc(N2CCN(C)CC2)c1	–

Compound	IC50 [1] [nM]	IC50 [2] [nM]	IC50 [3] [nM]	IC50 [4] [nM]	IC50 [5] [nM]	IC50 [6] [nM]	IC50 [7] [nM]	IC50 [8] [nM]	other results
CC(C)N(C(=O)Nc1ccccc1)c1cccc(N2CCN(C)CC2)c1	–	–	–	–	–	–	–	> 10000	–
CC(C)N(c1cccc(N2CCN(C)CC2)c1)S(=O)(=O)c1ccc2ccccc2c1	> 1000	118	3	248	> 10000	> 1000	–	4	Ratio IC50 [9]: > 25; Ratio IC50 [10]: > 25; inhibition [11]: Dose-dependent effect; Ratio IC50 [12]: > 25; Ratio IC50 [13]: > 25; Ratio IC50 [14]: > 25; Ratio IC50 [15]: > 25; Ratio IC50 [16]: > 25; inhibition [17]: Active; Ratio IC50 [18]: > 25; Ratio IC50 [19]: > 25; Ratio IC50 [20]: > 25; Ratio IC50 [21]: > 25; Ratio IC50 [22]: > 25; inhibition [23]: Active
CC(C)N(c1ccc(Oc2cccnc2)nc1)S(=O)(=O)c1ccc2ccccc2c1	–	–	422	–	–	–	–	> 10000	–
CC(C)N(C(=O)c1ccccc1)c1cccc(N2CCN(C)CC2)c1	–	–	–	–	–	–	–	4160	–
CC(C)N(Cc1ccccc1)c1cccc(N2CCN(C)CC2)c1	–	–	–	–	–	–	–	> 10000	–
